# Measurements reported in US20160184271A1, “Amino Acid Composition for Use in the Treatment of a PDD” (N.V. Nutricia, priority 2013, published 2016).
# Target: mTOR (Homo sapiens, UniProt P42345)
# Test: in vitro effect of amino acids on mTOR
# Format: biochemical
# Conditions: 1 mM rapamycin compared with 10 mM lysine
row,Compound,concentration having a comparable inhibitory effect on mTor
1,NCCCC[C@H](N)C(=O)O [lysine],10 mM

# Same assay, conditions: in vitro
row,Compound,effect on mTOR (inhibitory or activating)
1,CC[C@H](C)[C@H](N)C(=O)O [isoleucine],mTOR activating effect
2,CC(C)[C@H](N)C(=O)O [valine],mTOR activating effect
3,NCC(=O)O [glycine],inhibitory effect of mTOR
4,"N[C@@H](Cc1ccccc1)C(=O)O [Phenylalanine, phenylalanine]",inhibitory effect of mTOR
5,CC(C)C[C@H](N)C(=O)O [leucine],mTOR activating effect
